{
  "source": "patent US20090117089A1",
  "about": "“GLYCOLIPIDS AND ANALOGUES THEREOF AS ANTIGENS FOR NK T CELLS” (The Rockefeller University, priority 2005, published 2009)",
  "key": {"[1]": {"system": "human NKT cells (Vα24/Vβ11)", "experiment": "Human dendritic cell mediated NKT cell expansion", "format": "cell-based", "settings": "DCs loaded with glycolipid; data not shown"}, "A20 tumor cells": {"system": "A20 tumor cells", "experiment": "Tumor protection assay, A20", "format": "in vivo, mouse", "settings": "A20 challenge s.c.", "method": "Mice were also injected i.v. with PBS, 2 μg α-Gal Cer, 5×10^6 irradiated A20 cells with or without 2 μg α-Gal Cer i.v. Two weeks later, mice were challenged with a lethal tumorogenic dose of 5×10^6 live A20 s.c. The mice were monitored every other day for tumor growth and were scored positive when the tumors were palpable."}, "[2]": {"system": "Vα24i human NKT cell line", "experiment": "In vitro cytokine secretion assay using human NKT cell lines", "format": "cell-based", "settings": "CD14+ immature dendritic cells; 10 μg/ml glycolipid (1-10 μg/ml for 3-O-sulfo-α-galactosylceramide); 10 IU/ml IL-2", "method": "(§1) Human NKT cell lines, expressing the Vα24i T cell receptor as well as CD161, were generated as follows: Anti-CD161 monoclonal antibodies, and anti-CD14 monoclonal antibodies, each coupled to magnetic beads (Miltenyi biotec, Auburn, Calif.), were used sequentially to isolate CD161^+ cells and CD14^+ cells from leukopaks. Immature dendritic cells were generated from the CD14^+ cells after a two-day incubation in the presence of 300 U/ml GM-CSF (R&D systems, Minneapolis, Minn.) and 100 U/ml IL-4 (R&D systems, Minneapolis, Minn.). Following irradiation with 2000 rads, the immature dendritic cells were co-cultured with syngeneic CD161^+ cells in the presence of 100 ng/ml of alpha-galactosylceramide and 10 IU/ml of IL-2 (Invitrogen, Carlsbad Calif.) for 10 to 14 days. After stimulating the CD161^+ cells a second time with alpha-galactosylceramide-pulsed, irradiated immature dendritic cells, NKT cell lines were shown by flow cytometry to express both CD161^+ and V 24i TCR (99% purity).\nIFN-γ and IL-4 secretion by the Vα 24i human NKT cell line was determined by ELISA (BD Pharmingen, San Diego, Calif.) after culture for 16 hours. For these assays, 1×10^5 Vα 24i human NKT cells were co-cultured with 4×10^5 irradiated, immature CD14^+ dendritic cells, in the presence of the glycolipid compounds at 10 μg/ml in a 96-well flat-bottom plate.\nas §1, with “of 100-0.1” for “of 100”\nIn some cases, Hela cells were transfected with a human CD1d construct [Xing et al. 2005. Bioorg Med Chem 13: 2907], and were used to present the glycolipids, via pulsing with the respective compounds at the indicated concentration, to NKT lines.\nIFN-γ secretion by the Vα 24i human NKT cell line was determined by ELISA (BD Pharmingen, San Diego, Calif.) after culture for 16 hours. For these assays, 1×10^5 Vα 24i human NKT cells were co-cultured with 4×10^5 irradiated, immature CD14^+ dendritic cells, in the presence of the glycolipid compounds at 10 μg/ml in a 96-well flat-bottom plate."}, "[3]": {"system": "spleen CD11c+ cells (DCs and NK cells)", "experiment": "Cytokine production by DCs after in vivo glycolipid", "parameters": "species or system mouse", "settings": "for IL-12p40, IL-6 and TNF-α from DCs of primed mice: cultured in the presence of αCD40, ELISA and Luminex, data not shown", "method": "Cytokine production by DCs. After mice were given αGalCer or Compound 24 i.v., CD11c+ cells were isolated with anti-CD11c magnetic beads and cultured 4 h in the presence of Golgistop (from Cytofix/CytoPerm Plus kit; BD Biosciences). Cells were then stained for surface markers (CD11c and DX-5), permeabilized in 100 μl Cytofix/Cytoperm solution using manufacturer's instructions and stained for intracellular cytokines (IFN-γ and IL-12)."}, "[4]": {"system": "CD1d reactive T cell hybridomas with an invariant Vα14i T cell antigen receptor", "experiment": "1.2 hybridoma assay (IL-2 release by ELISA)", "format": "cell-based, mouse", "method": "As a measure of T cell activation, IL-2 release into the tissue culture medium was measured after 16 hours culture by an ELISA assay.\nAs a measure of T cell activation, IL-2 and IFN-γ release into the tissue culture medium was measured after 16 hours culture by an ELISA assay."}, "[5]": {"target": "T1, human CD1d dimers / invariant T cell receptor of human NKT cells (Homo sapiens, UniProt P15813)", "T1 construct": "soluble divalent human CD1d-IgG1 fusion protein; IgG1 (immunoglobulin fusion partner that makes the protein divalent); purchased BD Pharmingen / BD Biosciences (DimerX)", "experiment": "In vitro CD1d-dimer assay using a human NKT cell line", "format": "binding", "settings": "dimers loaded with 40 μM glycolipid", "method": "One mg of soluble divalent human CD1d-IgG1 fusion protein (human CD1d-IgG1 dimers, BD Pharmingen) were incubated overnight with […] of each glycolipid at 32° C. and at neutral pH according to the manufacturer's protocol. The glycolipid-loaded CD1d-IgG1 dimers were incubated with human NKT cells at 4° C. for 60 minutes, followed by incubation with PE-coupled anti-mouse IgG1 mAb (A85-1). The cells were also surface stained with a PerCP-coupled anti-CD3 mAb (BD Pharmingen, San Diego, Calif.).\nCD1d-dimer binding assay. CD1d dimer (DimerX, BD Biosciences) was incubated overnight with 40 μM of each glycolipid at 32° C. and at neutral pH according to the manufacturer's protocol. The loaded CD1d dimers were incubated with a human NKT cell line at 4° C. for 60 min, followed by incubation with APC-conjugated secondary antibody. The cells were also co-stained with mAbs against the invariant NKT cell receptor (Vα24/Vβ11). At least 2×10^5 lymphocyte-gated events were acquired to allow reliable estimation of NKT cells."}, "[6]": {"settings": "2 μg or 0.2 μg, 2, 6, 12 h in vivo, intracellular staining"}},
  "data": [
    {"compound": "CCCCCCCCCCCCCCCCCCCCCCCCCC(=O)N[C@@H](CO[C@H]1O[C@H](CO)[C@H](O)[C@H](O)[C@H]1O)[C@H](O)[C@H](O)CCCCCCCCCCCCCC", "note": "[α-GalCer, 2S,3S,4R-1-O(α-galactopyranosyl)-2(N-hexacosanoylamino)-1,3,4-octadecanetriol]", "values": [
      {"measurement": "production of IFNγ, IL-13 and IL-2 by NKT cells", "setting": "[1]", "result": "induced rapid production of IFNγ, IL-13 and IL-2"},
      {"measurement": "tumor outcome after combined vaccination", "setting": "A20 tumor cells; irradiated A20 cells and α-Gal Cer i.v.", "result": "protected and remained tumor-free"},
      {"measurement": "tumor outcome after glycolipid alone", "setting": "A20 tumor cells; α-Gal Cer pretreatment alone", "result": "development of palpable tumors"},
      {"measurement": "IFN-γ secretion", "setting": "[2]", "result": "greater IFN-γ and IL-4 secretion"},
      {"measurement": "IL-4 secretion", "setting": "[2]", "result": "greater IFN-γ and IL-4 secretion"},
      {"measurement": "IL-12p40, IL-6 and TNF-α from DCs of primed mice", "setting": "[3]", "result": "significant but comparable amounts of IL-12p40, IL-6 and TNF-α"},
      {"measurement": "IL-2 release from the hybridomas", "setting": "[4]; 1 μg/ml, CD1d transfected A20 cells", "result": "greatest amount of IL-2 release"},
      {"measurement": "IL-2 secretion", "setting": "[4]; CD1d coated plates, Sphingomonas glycolipids and analogues", "result": "greater IL-2 secretion"}
    ]},
    {"compound": "3-O-sulfo-alpha-galactosylceramide [Compound 24]", "values": [
      {"measurement": "production of IFNγ, IL-13 and IL-2 by NKT cells", "setting": "[1]", "result": "induced rapid production of IFNγ, IL-13 and IL-2"},
      {"measurement": "production of IFN-γ by CD11c+DX5+ NK cells, vs. αGalCer", "setting": "[3]; [6]", "result": "significantly higher"},
      {"measurement": "production of IL-12 by CD11c+DX5− DCs, vs. αGalCer", "setting": "[3]; [6]", "result": "significantly higher"},
      {"measurement": "IL-12p40, IL-6 and TNF-α from DCs of primed mice", "setting": "[3]", "result": "significant but comparable amounts of IL-12p40, IL-6 and TNF-α"},
      {"measurement": "biological activity in the 1.2 hybridoma assay (IL-2 secretion)", "setting": "[4]", "result": "moderately active"},
      {"measurement": "binding of loaded CD1d dimers to Vα24/Vβ11 invariant TCR expressing NKT cells", "setting": "[5]", "result": "to a lesser extent than α-GalCer"}
    ]}
  ]
}
